Columns and labels:
[1] = test system: Arabidopsis thaliana seedlings; assay: Seed germination assay of transgenic Arabidopsis (Example 26); type: in vivo; conditions: Kanamycin 50 mg/l
Description: T2 seed was harvested from selected putative transformants and sown on GM medium containing 50 mg/l kanamycin and that containing 5 ppb 10015. Plates were sealed with filter tape, cold treated for 2 or more days at 4° C., and then incubated for 10 to 20 days at 23° C. under constant illumination as described above. Seedlings were scored as resistant (green, true leaves develop) and sensitive (no true leaves develop). […] The percent of resistant seedlings is inversely proportional with the two selections. Kanamycin is a positive selection for those seedlings that carry the foreign DNA.
Selected T2 seedlings that were kanamycin resistant were transplanted to soil and were grown to maturity at 21° C. daytime (14 hours) 18° C. nighttime (10 hours) at 65-80% relative humidity. T3 seed was collected, sterilized, and germinated on GM medium containing 50 mg/l kanamycin and that containing 5 ppb 10015. Plates were sealed with filter tape, cold treated for 2 or more days at 4° C., and then incubated for 10 to 20 days at 23° C. under constant illumination as described above. Two of the six plants produced seed that was 100% resistant to kanamycin and 100% sensitive to 10015; they are homozygous for the inserted DNA. The other four parents are heterozygous and show an inverse proportion of kanamycin and 10015 resistant seedlings. […] Therefore, seedlings expressing the P450SU1 gene can be negatively selected.
Germination assays of homozygous seed on various concentrations of 10015 were performed to assay the relative sensitivity to 10015 produced by the three different promoters and between independent transformants. Seed was sterilized, sown on GM medium with 0, 0.5, 1, 2, 5, 10 and 20 ppb 10015, incubated, and scored as described above. In addition, seedlings are rated on a scale of one to three for the amount of growth.
Over 500 seed that are homozygous for the P450SU1 coding region were sown on the same plates. The plates were sealed, cold-treated, and incubated as previously described. […] Wild type seedlings were unaffected by the dying transformed seedlings. In addition, when greater than 10,000 seed of a homozygous Cab-SU111 plant was sown on GM medium with 10 ppb 10015, then cold-treated and incubated as described above, eighteen seedlings were resistant to 10015 and were unaffected by neighboring seedlings.

[2] = test system: transformed tobacco seedlings; assay: Kanamycin resistance of progeny of transformed tobacco (Example 22); type: in vivo, Nicotiana tabacum
Description: Growth medium was prepared from Murishige minimal organics medium (Gibco Laboratories, Grand Island, N.Y.), 8 g/l agar, supplemented with T vitamins (50 ppb biotin, 0.5 ppm pyridoxine HCl, 0.5 ppm thiamine HCl, 5 ppm nicotinic acid, 0.5 ppm folic acid, 2 ppm glycine, 100 ppm myo-inositol), sterilized and placed into sterile PlantCon plant tissue culture containers (Flow Laboratories, McLean, Va.). Tobacco seed obtained from the self-pollination of the primary transformants was surface sterilized by a treatment of not more than 30 min in 20% chlorine bleach, 0.1% sodium dodecyl sulfate, followed by rinsing in distilled water, and placed on the surface of the medium in the sterile containers. Following this treatment, the seed was allowed to germinate and grow under illumination (100 microeinsteins·m^-2 ·s^-1), at 22° C.
The number of loci where t-DNA was incorporated into the genome of the tobacco was determined by segregation analysis of kanamycin resistance in the next generation of progeny. Seed from the self pollination of the primary transformants was grown as described above on medium supplemented with 200 ppm kanamycin sulfate (Sigma). After 21 days, resistant (transformed) plants were unaffected compared to control plants, whereas sensitive plants were smaller, partially chlorotic, and poorly rooted. Determination of the number of genetic loci of the primary transformants was based on the segregation of the kanamycin resistance trait.
Copy number determination is from kanamycin sensitive segregation analysis of about 100 seed.

[3] = test system: S. lividans pCAO200SU1-FeS-B#9; assay: Sulfonylurea metabolism by washed cell suspension (Examples 6-9); type: in vitro ADME, Streptomyces lividans; conditions: substrate 10006
Description: (§1) Herbicides and their metabolites are measured by HPLC as described by Romesser et al., BBRC 140: 650-659 (1986), herein incorporated by reference, except that 0.1% H3 PO4 is used in both solvents. Chromatographic identity and quantitation of the herbicides and their resulting metabolites is determined by comparing them chromatographically with authentic standard compounds. Identity of the resulting metabolites is also confirmed by UV spectroscopy.
A 100 ml culture of S. griseolus ATCC 11796 in sporulation broth and a 50 ml culture of S. lividans transformed with pCAO400 in YEME broth were prepared and incubated for 24 hours as described. At that time, the S. griseolus culture was split into two 50 ml aliquots into two separate flasks and 25 ml of fresh sporulation broth was added to each and 9 mg of […] was added to one of these cultures to induce cytochrome P450SU1 expression. Fresh YEME broth (25 ml) was added to the S. lividans culture. After an additional 6 hours growth at 30° C., the cells in each culture were harvested as described above, washed twice with MOPS (50 mM, pH 7.2) and recentrifuged. The cell pellets were resuspended in four cell volumes of MOPS (50 mM, pH 7.2) containing 0.2% glucose and about 100 μg/ml of 10004. These cell suspensions were incubated at 30° C. with shaking and aliqouts were taken at 2 and 5.5 hours. The supernatant of each aliquot was analyzed by HPLC and the concentrations of the sulfonylurea compound 10004 and its metabolite 10005 were determined.
S. lividans transformed respectively with pCAO200SU1-FeS-B#9, pCAO200SU#112and pCAO200 were cultured for 36 hours in 400 ml of YEME broth at 30° C. S. griseolus ATCC 11796 was similarly cultured in 400 ml of sporulation broth. Six hours before harvesting the cells, 150 ml of fresh YEME broth was added to the S. lividans cells, and the S. griseolus cells were split into two 200 ml cultures with 100 ml of fresh sporulation broth added to each. 10001 (36 mg) was added to one of the two S. griseolus cultures to induce cytochrome P450SU1. […]

[4] = test system: S. lividans pCAO200; assay: as above; type: in vitro ADME, Streptomyces lividans; conditions: substrate 10006
Description: as §1, with “spectroscopy. […]” for “spectroscopy.”
(§2) S. lividans transformed respectively with pCAO200SU1-FeS-B#9, pCAO200SU#112and pCAO200 were cultured for 36 hours in 400 ml of YEME broth at 30° C. S. griseolus ATCC 11796 was similarly cultured in 400 ml of sporulation broth. Six hours before harvesting the cells, 150 ml of fresh YEME broth was added to the S. lividans cells, and the S. griseolus cells were split into two 200 ml cultures with 100 ml of fresh sporulation broth added to each. 10001 (36 mg) was added to one of the two S. griseolus cultures to induce cytochrome P450SU1. The cells were prepared as described above in Example 5 and the concentrations of the sulfonylurea compound 10006 and its metabolites 10007, 10008 or 10009 were determined.

[5] = test system: S. lividans pCAO200SU1#12; assay: as above; type: in vitro ADME, Streptomyces lividans; conditions: substrate 10006
Description: as §1, with “spectroscopy. […]” for “spectroscopy.”
as §2

NC[C@H]1O[C@H](O[C@H]2[C@H](O)[C@@H](O[C@H]3O[C@H](CO)[C@@H](O)[C@H](N)[C@H]3O)[C@H](N)C[C@@H]2N)[C@H](O)[C@@H](O)[C@@H]1O [Kanamycin, reference compound]
#R number of resistant seedlings ([1]; T2 seed ID 12-1, pCab-SU111): 11
#S number of sensitive seedlings ([1]; T2 seed ID 12-1, pCab-SU111): 6
% R percent of seedlings which are resistant ([1]; T2 seed ID 12-1, pCab-SU111): 65%
#R number of resistant seedlings ([1]; T2 seed ID 12-2, pCab-SU111): 0
#S number of sensitive seedlings ([1]; T2 seed ID 12-2, pCab-SU111): 12
% R percent of seedlings which are resistant ([1]; T2 seed ID 12-2, pCab-SU111): 0%
#R number of resistant seedlings ([1]; T2 seed ID 12-4, pCab-SU111): 13
#S number of sensitive seedlings ([1]; T2 seed ID 12-4, pCab-SU111): 18
% R percent of seedlings which are resistant ([1]; T2 seed ID 12-4, pCab-SU111): 42%
#R number of resistant seedlings ([1]; T2 seed ID 12-5, pCab-SU111): 0
#S number of sensitive seedlings ([1]; T2 seed ID 12-5, pCab-SU111): 20
% R percent of seedlings which are resistant ([1]; T2 seed ID 12-5, pCab-SU111): 0%
#R number of resistant seedlings ([1]; T2 seed ID 12-6, pCab-SU111): 15
#S number of sensitive seedlings ([1]; T2 seed ID 12-6, pCab-SU111): 9
% R percent of seedlings which are resistant ([1]; T2 seed ID 12-6, pCab-SU111): 62%
#R number of resistant seedlings ([1]; T2 seed ID 12-7, pCab-SU111): 21
#S number of sensitive seedlings ([1]; T2 seed ID 12-7, pCab-SU111): 7
% R percent of seedlings which are resistant ([1]; T2 seed ID 12-7, pCab-SU111): 75%
#R number of resistant seedlings ([1]; T2 seed ID 12-8, pCab-SU111): 6
#S number of sensitive seedlings ([1]; T2 seed ID 12-8, pCab-SU111): 5
% R percent of seedlings which are resistant ([1]; T2 seed ID 12-8, pCab-SU111): 55%
#R number of resistant seedlings ([1]; T2 seed ID 12-9, pCab-SU111): 13
#S number of sensitive seedlings ([1]; T2 seed ID 12-9, pCab-SU111): 3
% R percent of seedlings which are resistant ([1]; T2 seed ID 12-9, pCab-SU111): 81%
#R number of resistant seedlings ([1]; T2 seed ID 12-10, pCab-SU111): 0
#S number of sensitive seedlings ([1]; T2 seed ID 12-10, pCab-SU111): 21
% R percent of seedlings which are resistant ([1]; T2 seed ID 12-10, pCab-SU111): 0%
#R number of resistant seedlings ([1]; T2 seed ID 12-11, pCab-SU111): 0
#S number of sensitive seedlings ([1]; T2 seed ID 12-11, pCab-SU111): 9
% R percent of seedlings which are resistant ([1]; T2 seed ID 12-11, pCab-SU111): 0%
#R number of resistant seedlings ([1]; T3 seed ID 12-1-1, pCab-SU111): 184
#S number of sensitive seedlings ([1]; T3 seed ID 12-1-1, pCab-SU111): 0
% R percent of seedlings which are resistant ([1]; T3 seed ID 12-1-1, pCab-SU111): 100%
#R number of resistant seedlings ([1]; T3 seed ID 12-1-2, pCab-SU111): 191
#S number of sensitive seedlings ([1]; T3 seed ID 12-1-2, pCab-SU111): 0
% R percent of seedlings which are resistant ([1]; T3 seed ID 12-1-2, pCab-SU111): 100%
#R number of resistant seedlings ([1]; T3 seed ID 12-1-3, pCab-SU111): 136
#S number of sensitive seedlings ([1]; T3 seed ID 12-1-3, pCab-SU111): 41
% R percent of seedlings which are resistant ([1]; T3 seed ID 12-1-3, pCab-SU111): 77%
#R number of resistant seedlings ([1]; T3 seed ID 12-1-4, pCab-SU111): 98
#S number of sensitive seedlings ([1]; T3 seed ID 12-1-4, pCab-SU111): 39
% R percent of seedlings which are resistant ([1]; T3 seed ID 12-1-4, pCab-SU111): 72%
#R number of resistant seedlings ([1]; T3 seed ID 12-1-5, pCab-SU111): 161
#S number of sensitive seedlings ([1]; T3 seed ID 12-1-5, pCab-SU111): 56
% R percent of seedlings which are resistant ([1]; T3 seed ID 12-1-5, pCab-SU111): 74%
#R number of resistant seedlings ([1]; T3 seed ID 12-1-6, pCab-SU111): 254
#S number of sensitive seedlings ([1]; T3 seed ID 12-1-6, pCab-SU111): 75
% R percent of seedlings which are resistant ([1]; T3 seed ID 12-1-6, pCab-SU111): 77%
#R number of resistant seedlings ([1]; WT): 0
#S number of sensitive seedlings ([1]; WT): 77
% R percent of seedlings which are resistant ([1]; WT): 0%
Kanamycin Resistant (plants demonstrating result/total plants) ([2]; AGS502 (Control)): 6/9
Kanamycin Resistant (plants demonstrating result/total plants) ([2]; SuFe21.2): 7/10
Kanamycin Resistant (plants demonstrating result/total plants) ([2]; SuFe21.5): 8/10
Kanamycin Resistant (plants demonstrating result/total plants) ([2]; SuFe21.6): 9/10
Kanamycin Resistant (plants demonstrating result/total plants) ([2]; SuFe21.7): 7/10
Kanamycin Resistant (plants demonstrating result/total plants) ([2]; SuFe21.8): 8/9
Kanamycin Resistant (plants demonstrating result/total plants) ([2]; SuFell.1): 7/9
Kanamycin Resistant (plants demonstrating result/total plants) ([2]; SuFell.11): 7/8
Kanamycin Resistant (plants demonstrating result/total plants) ([2]; SuFell.3): 5/10
Kanamycin Resistant (plants demonstrating result/total plants) ([2]; SuFell.4): 7/10
Kanamycin Resistant (plants demonstrating result/total plants) ([2]; SuFell.7): 9/10
Kanamycin Resistant (plants demonstrating result/total plants) ([2]; SuFell.8): 10/10

COC(=O)c1ccccc1S(=O)(=O)NC(=O)Nc1nc(CO)nc(OC)n1 [compound 10009, N-[(4-methoxy-6-hydroxymethyl-1,3,5-triazin-yl)aminocarbony1]-2-methoxycarbonylbenzenesulfonamide]
concentration in supernatant ([3]; 2 h): 15000 nM
concentration in supernatant ([3]; 4 h): 33000 nM
concentration in supernatant ([3]; 6 h): 49000 nM
concentration in supernatant ([4]; 2 h): 0 nM
concentration in supernatant ([4]; 4 h): 0 nM
concentration in supernatant ([4]; 6 h): 0 nM
concentration in supernatant ([5]; 2 h): 0 nM
concentration in supernatant ([5]; 4 h): 1000 nM
concentration in supernatant ([5]; 6 h): 1000 nM

COC(=O)c1ccccc1S(=O)(=O)NC(=O)Nc1nc(C)nc(O)n1 [compound 10007, N-[(4-hydroxy-6-methyl-1,3,5-triazinyl)aminocarbonyl]-2-methoxycarbonylbenzenesulfonamide]
concentration in supernatant ([3]; 2 h): 12000 nM
concentration in supernatant ([3]; 4 h): 21000 nM
concentration in supernatant ([3]; 6 h): 30000 nM
concentration in supernatant ([4]; 2 h): 4000 nM
concentration in supernatant ([4]; 4 h): 1000 nM
concentration in supernatant ([4]; 6 h): 1000 nM
concentration in supernatant ([5]; 2 h): 2000 nM
concentration in supernatant ([5]; 4 h): 2000 nM
concentration in supernatant ([5]; 6 h): 2000 nM

— patent US5349127A, “Expression of herbicide metabolizing cytochromes P450” (priority 1992, dated 1994)
